Several values for one entry are separate records, joined by “and”; a condition that tells them apart may be missing. Equal entries are not always repeated. Values belong to the molecule of their own block, whether it stands above or below them.
Tests used:
HCT116 (p53+/+) cells = assay: Q-PCR relative expression levels, HCT116 (p53+/+); format: cell-based, human
USP7 = settings: cited from earlier work; for potency and specificity for USP7: recently reported USP7 inhibitors
USP47 = settings: cited from earlier work
hUSP7CD = target: T1, hUSP7CD (Homo sapiens, UniProt Q93009); assay: Ub-AMC enzymatic inhibition assay, hUSP7CD; format: biochemical
T1 construct: Swiss Prot entry: Q93009, residues 208–560; His6 (N); made in house; host or cells: E. coli BL21 (DE3) codon plus RIL
Protocol: (§2) Enzymes and substrates were diluted in the reaction buffer (20 mM HEPES, pH 7.4, 150 mM NaCl, and 5 mM DTT) to a concentration of 5 μM for the substrate and 0.5 μM for the enzymes. […] USP enzymatic activity and inhibition assays were measured at room temperature using the cleavage-sensitive fluorogenic substrate Ub-AMC (Boston Biochem, U-550). […] The AMC fluorescence emission was monitored at 460 nm (excitation at 380 nm) for 30–60 min using a SpectraMax M3 plate reader (Molecular Devices). […] The data were fitted using GraphPad Prism 7 (GraphPad Inc.). Fluorescence intensity was recorded every 45 s for 90 min. Data are presented as the mean ± SD (n = 3).

Flag-USP7 = target: T2, Flag-USP7 (Homo sapiens, UniProt Q93009); assay: Immunoprecipitation and DUB assay with K48-linked ubiquitin chains, Flag-USP7 from treated HEK293T cells; format: cell-based; settings: HEK293T cells treated for 2 h, immunoprecipitated Flag-USP7, Fig. 2f
T2 construct: expressed in transfected cells; host or cells: HEK293T
Protocol: Fig. 2 Biochemical properties of USP47. a Domain structure of USP47 and the constructs used in this study. b HEK293T cells were transfected with USP Flag-tagged mutants. […] The IC50 values were determined in triplicate and fitted to a four-parameter logistic dose-response curve. Data are expressed as means ± SD.
HEK293T cells transfected with pFlag-CMV-2 vector, pFlag-USP7, or pFlag-USP47 were treated with drugs, as indicated, and lysed by protein lysis buffer (20 mM Tris–Cl, 150 mM NaCl, 1 mM EDTA, 1 mM EGTA, 1% Triton X-100, 2.5 mM sodium pyrophosphate, 50 mM NaF, 5 mM β-glycerophosphate, 1 mM Na3VO4, 1x protease inhibitor, pH 7.5). […] Flag affinity gel was washed 5 times with lysis buffer and the supernatant was removed carefully with a syringe after the last wash step. For elution, Flag agarose was incubated with 3× Flag peptide (Sigma Aldrich) in elution buffer (15 μg of Flag peptide in 50 μl of lysis buffer) for 30 min at 4 °C. The supernatants were collected as immunoprecipitates. […] Samples were analyzed by Western blot and detected with the anti-ubiquitin antibody.

cUSP47CD = cUSP47CD (Caenorhabditis elegans, UniProt Q22240); assay: Ub-AMC enzymatic inhibition assay, cUSP47CD; format: biochemical; design: Residual enzymatic activity, cUSP47CD_IC50(p50429): unit not given here
Protocol: (§1) Enzymes and substrates were diluted in the reaction buffer (20 mM HEPES, pH 7.4, 150 mM NaCl, and 5 mM DTT) to a concentration of 5 μM for the substrate and 0.5 μM for the enzymes. At the indicated time points following the reaction initiation, 10 μL reaction aliquots were taken and the reaction was stopped by adding SDS sampling buffer and analyzed using SDS-PAGE. Then, the 4–15% gradient gel was stained with Coomassie Brilliant Blue R-250. USP enzymatic activity and inhibition assays were measured at room temperature using the cleavage-sensitive fluorogenic substrate Ub-AMC (Boston Biochem, U-550). The deubiquitination assay was performed following the protocol by Ernst et al.[30]. Briefly, enzyme activity assays were performed in assay buffer in 20 mM HEPES (pH 7.4), 100 mM NaCl, and 5 mM DTT) containing cUSP47CD (in 50 nM), hUSP47CD-UBL12 (in 100 nM) or hUSP7CD (in 100 nM) constructs and serial dilutions of Ub-AMC (final 35 μM). The AMC fluorescence emission was monitored at 460 nm (excitation at 380 nm) for 30–60 min using a SpectraMax M3 plate reader (Molecular Devices). […] The data were fitted using GraphPad Prism 7 (GraphPad Inc.). Fluorescence intensity was recorded every 45 s for 90 min. Data are presented as the mean ± SD (n = 3).

[1] = system: multiple myeloma xenograft models; settings: in vitro and in vivo multiple myeloma xenograft models; cited from earlier work
cUSP47CD^A416NA417H = assay: Ub-AMC enzymatic inhibition assay, cUSP47CD^A416NA417H; format: biochemical, Caenorhabditis elegans; settings: FT671 5 μM, Fig. 5d
Protocol: as §1

cUSP47CD^R309NA416NA417H = assay: Ub-AMC enzymatic inhibition assay, cUSP47CD^R309NA416NA417H; format: biochemical, Caenorhabditis elegans; settings: FT671 5 μM, Fig. 5d, compared with the double mutant
Protocol: as §1

hUSP7CD^N460AH461A = target: T3, hUSP7CD^N460AH461A (Homo sapiens, UniProt Q93009, H461A/N460A); assay: Ub-AMC enzymatic inhibition assay, hUSP7CD^N460AH461A; format: biochemical; settings: FT671 5 μM, Fig. 5d
T3 construct: Swiss Prot entry: Q93009, residues 208–560; His6 (N); made in house; host or cells: E. coli BL21 (DE3) codon plus RIL
Protocol: as §2

cUSP47CD^R309N = assay: Ub-AMC enzymatic inhibition assay, cUSP47CD^R309N; format: biochemical, Caenorhabditis elegans; settings: FT671 5 μM, Fig. 5d
Protocol: as §1

Ub-AMC = Ub-AMC hydrolysis, Michaelis-Menten enzyme kinetics and relative activity of USP constructs; format: biochemical
Protocol: as §1

Chain of cUSP47CD (Q22240 entry or part of it): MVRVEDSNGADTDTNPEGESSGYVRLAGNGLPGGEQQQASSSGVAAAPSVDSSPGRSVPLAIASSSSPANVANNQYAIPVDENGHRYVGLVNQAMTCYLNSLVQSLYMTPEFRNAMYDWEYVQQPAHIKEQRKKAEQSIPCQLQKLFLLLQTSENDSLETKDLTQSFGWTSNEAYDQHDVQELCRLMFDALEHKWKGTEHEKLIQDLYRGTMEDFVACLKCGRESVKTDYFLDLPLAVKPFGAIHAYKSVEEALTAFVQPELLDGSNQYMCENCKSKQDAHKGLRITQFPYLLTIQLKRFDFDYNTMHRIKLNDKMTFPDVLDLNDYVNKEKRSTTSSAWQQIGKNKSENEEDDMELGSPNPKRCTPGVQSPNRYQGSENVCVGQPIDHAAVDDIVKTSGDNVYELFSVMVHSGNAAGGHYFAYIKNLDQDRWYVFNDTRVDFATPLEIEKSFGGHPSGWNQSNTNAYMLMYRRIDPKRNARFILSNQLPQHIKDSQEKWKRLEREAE
T1 sequence (Q93009 208-560): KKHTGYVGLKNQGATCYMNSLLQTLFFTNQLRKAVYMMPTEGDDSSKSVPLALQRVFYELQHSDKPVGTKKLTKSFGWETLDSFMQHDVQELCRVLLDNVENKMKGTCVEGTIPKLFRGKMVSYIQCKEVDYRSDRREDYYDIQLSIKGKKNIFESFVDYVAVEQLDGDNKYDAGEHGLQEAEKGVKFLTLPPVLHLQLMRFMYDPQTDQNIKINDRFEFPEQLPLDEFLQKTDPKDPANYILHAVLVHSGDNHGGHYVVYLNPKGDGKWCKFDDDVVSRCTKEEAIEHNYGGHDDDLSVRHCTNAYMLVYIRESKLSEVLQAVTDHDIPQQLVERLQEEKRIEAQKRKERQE
T2 sequence (Q93009 whole entry): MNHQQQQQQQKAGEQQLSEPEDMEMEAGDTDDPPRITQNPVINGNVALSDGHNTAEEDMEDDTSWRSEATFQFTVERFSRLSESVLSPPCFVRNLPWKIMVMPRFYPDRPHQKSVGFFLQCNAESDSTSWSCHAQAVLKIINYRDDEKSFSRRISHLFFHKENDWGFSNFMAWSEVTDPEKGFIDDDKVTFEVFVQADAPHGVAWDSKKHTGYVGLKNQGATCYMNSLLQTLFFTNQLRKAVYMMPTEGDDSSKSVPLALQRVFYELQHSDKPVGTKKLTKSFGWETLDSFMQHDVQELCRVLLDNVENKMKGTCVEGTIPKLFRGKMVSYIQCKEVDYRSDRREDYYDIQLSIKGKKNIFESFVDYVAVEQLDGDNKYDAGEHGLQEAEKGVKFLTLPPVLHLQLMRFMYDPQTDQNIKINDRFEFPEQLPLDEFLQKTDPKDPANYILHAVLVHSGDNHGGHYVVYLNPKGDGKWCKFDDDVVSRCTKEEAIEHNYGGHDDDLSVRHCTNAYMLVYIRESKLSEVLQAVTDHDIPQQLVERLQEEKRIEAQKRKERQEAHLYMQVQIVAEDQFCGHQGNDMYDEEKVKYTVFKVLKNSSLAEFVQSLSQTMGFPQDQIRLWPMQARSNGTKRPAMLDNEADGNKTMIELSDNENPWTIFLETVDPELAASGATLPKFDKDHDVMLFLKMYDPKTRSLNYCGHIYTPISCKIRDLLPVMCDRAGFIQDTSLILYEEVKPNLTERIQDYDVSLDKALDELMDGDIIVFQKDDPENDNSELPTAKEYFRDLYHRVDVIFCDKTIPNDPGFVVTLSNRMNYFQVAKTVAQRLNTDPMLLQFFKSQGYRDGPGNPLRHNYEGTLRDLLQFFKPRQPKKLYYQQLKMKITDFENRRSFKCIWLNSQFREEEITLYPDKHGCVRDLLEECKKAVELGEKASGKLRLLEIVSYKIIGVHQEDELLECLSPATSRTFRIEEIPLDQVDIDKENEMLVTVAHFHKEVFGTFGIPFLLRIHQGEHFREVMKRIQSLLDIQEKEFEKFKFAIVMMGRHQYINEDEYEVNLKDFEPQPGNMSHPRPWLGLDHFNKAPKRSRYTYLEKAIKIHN
T3 sequence (Q93009 208-560 N460A/H461A): as the sequence (Q93009 208-560) above, with N253A, H254A counted along it

Molecule: USP47i-2: USP47 siRNA #2, 5′-TGAAAAGGGATGTGCAAAA-3′ (chemistry not given here)
relative expression level of USP7 (Q-PCR) (HCT116 (p53+/+) cells): 0.9487
relative expression level of USP47 (Q-PCR) (HCT116 (p53+/+) cells): 0.486

Molecule: C=C1C(=O)O[C@H]2[C@H]1CC/C(C)=C/CC[C@@]1(C)O[C@@H]21 [Parthenolide]
inhibition of USP7 (USP7): can also inhibit both DUBs
inhibition of USP47 (USP47): can also inhibit both DUBs

Molecule: USP7i-2: USP7 siRNA #2, 5′-ACCCUUGGACAAUAUUCCU-3′ (chemistry not given here)
relative expression level of USP7 (Q-PCR) (HCT116 (p53+/+) cells): 0.5662
relative expression level of USP47 (Q-PCR) (HCT116 (p53+/+) cells): 0.9671

Molecule: C[C@H](CC(=O)N1CCC(O)(Cn2cnc3cc(NC(=O)CCN4CCN(C)CC4)ccc3c2=O)CC1)c1ccccc1 [XL188]
potency and specificity for USP7 (USP7): high potency and specificity only for USP7

IC50 (hUSP7CD): 5.3 ± 1 µM
DUB activity on K48-linked ubiquitin chains (Flag-USP7): inhibited the DUB activity
IC50 (cUSP47CD; Ub-AMC, USP47 50 nM, 10 min at 25 °C, triplicate, mean ± SD): 1.4 ± 0.2 µM
Residual enzymatic activity, cUSP47CD_IC50(p50429) (cUSP47CD; inhibitor concentration 0.0244141, three replicates, 0.0244141 µM): 98.3931 and 102.68
remaining activity at 0.0244141 µM (cUSP47CD; inhibitor concentration 0.0244141, three replicates, read-out: Residual enzymatic activity, cUSP47CD_IC50(p50429)): 106%
Residual enzymatic activity, cUSP47CD_IC50(p50429) (cUSP47CD; inhibitor concentration 0.0488281, three replicates, 0.0488281 µM): 94.8604 and 95.1269
remaining activity at 0.0488281 µM (cUSP47CD; inhibitor concentration 0.0488281, three replicates, read-out: Residual enzymatic activity, cUSP47CD_IC50(p50429)): 100%
Residual enzymatic activity, cUSP47CD_IC50(p50429) (cUSP47CD; inhibitor concentration 0.0976562, three replicates, 0.0976562 µM): 90.0141 and 90.4933
remaining activity at 0.0976562 µM (cUSP47CD; inhibitor concentration 0.0976562, three replicates, read-out: Residual enzymatic activity, cUSP47CD_IC50(p50429)): 86.3%
Residual enzymatic activity, cUSP47CD_IC50(p50429) (cUSP47CD; inhibitor concentration 0.195312, three replicates, 0.195312 µM): 70.9575 and 84.4737
remaining activity at 0.195312 µM (cUSP47CD; inhibitor concentration 0.195312, three replicates, read-out: Residual enzymatic activity, cUSP47CD_IC50(p50429)): 90.3%
Residual enzymatic activity, cUSP47CD_IC50(p50429) (cUSP47CD; inhibitor concentration 0.390625, three replicates, 0.390625 µM): 71.1433 and 81.3617
remaining activity at 0.390625 µM (cUSP47CD; inhibitor concentration 0.390625, three replicates, read-out: Residual enzymatic activity, cUSP47CD_IC50(p50429)): 83.2%
Residual enzymatic activity, cUSP47CD_IC50(p50429) (cUSP47CD; inhibitor concentration 0.78125, three replicates, 0.78125 µM): 64.5756 and 70.9586
remaining activity at 0.78125 µM (cUSP47CD; inhibitor concentration 0.78125, three replicates, read-out: Residual enzymatic activity, cUSP47CD_IC50(p50429)): 71.1%
Residual enzymatic activity, cUSP47CD_IC50(p50429) (cUSP47CD; inhibitor concentration 1.5625, three replicates, 1.5625 µM): 47.6458 and 50.9074
remaining activity at 1.5625 µM (cUSP47CD; inhibitor concentration 1.5625, three replicates, read-out: Residual enzymatic activity, cUSP47CD_IC50(p50429)): 52.3%
Residual enzymatic activity, cUSP47CD_IC50(p50429) (cUSP47CD; inhibitor concentration 3.125, three replicates, 3.125 µM): 23.3806 and 22.8255
remaining activity at 3.125 µM (cUSP47CD; inhibitor concentration 3.125, three replicates, read-out: Residual enzymatic activity, cUSP47CD_IC50(p50429)): 24.7%
Residual enzymatic activity, cUSP47CD_IC50(p50429) (cUSP47CD; inhibitor concentration 6.25, three replicates, 6.25 µM): 13.3082 and 13.4812
remaining activity at 6.25 µM (cUSP47CD; inhibitor concentration 6.25, three replicates, read-out: Residual enzymatic activity, cUSP47CD_IC50(p50429)): 23%
Residual enzymatic activity, cUSP47CD_IC50(p50429) (cUSP47CD; inhibitor concentration 12.5, three replicates, 12.5 µM): 11.6652 and 7.474
remaining activity at 12.5 µM (cUSP47CD; inhibitor concentration 12.5, three replicates, read-out: Residual enzymatic activity, cUSP47CD_IC50(p50429)): 11.3%
Residual enzymatic activity, cUSP47CD_IC50(p50429) (cUSP47CD; inhibitor concentration 25, three replicates, 25 µM): 6.001 and 6.389
remaining activity at 25 µM (cUSP47CD; inhibitor concentration 25, three replicates, read-out: Residual enzymatic activity, cUSP47CD_IC50(p50429)): 7.06%
Residual enzymatic activity, cUSP47CD_IC50(p50429) (cUSP47CD; inhibitor concentration 50 (0–50 μM series), three replicates, 50 µM): 4.2047 and -1.497 and -1.461
Molecule: CS(=O)(=O)c1ccc(NC(=O)c2cc(C#N)c(Sc3c(Cl)cncc3Cl)s2)cc1 [P50429]

Molecule: CCc1c(-c2ccc(C(=O)NC)nc2)cnc(N)c1-c1ccc(O)cc1 [GNE6776]
potency and specificity for USP7 (USP7): high potency and specificity only for USP7

Molecule: USP47i-1: USP47 siRNA #1, 5′-AAGCTACTCCTACTCATCTATTT-3′ (chemistry not given here)
relative expression level of USP7 (Q-PCR) (HCT116 (p53+/+) cells): 0.6273
relative expression level of USP47 (Q-PCR) (HCT116 (p53+/+) cells): 0.3385

Molecule: CC(=O)c1cc([N+](=O)[O-])c(Sc2cccc(Cl)c2Cl)s1 [P5091, 1-[5-(2,3-dichlorophenylsulfanyl)−4-nitro-2thienl]ethanone]
IC50 (USP7; read-out: IC50 USP7): 4.2 µM
IC50 (USP47): 4.3 µM
antitumor efficacy [1]: antitumor efficacy

Molecule: O=C(C[C@@H](C(F)F)n1ccc(F)n1)N1CCC(O)(Cn2cnc3c(cnn3-c3ccc(F)cc3)c2=O)CC1 [FT671]
potency and specificity for USP7 (USP7): high potency and specificity only for USP7
inhibition of USP7 wild type by FT671 (hUSP7CD; FT671 5 μM, Ub-AMC, Fig. 5d): complete inhibition
reduction in the activity of cUSP47CD^A416NA417H with FT671 (cUSP47CD^A416NA417H): ~40%
inhibition of cUSP47CD^R309NA416NA417H by FT671 (cUSP47CD^R309NA416NA417H): even more inhibition
Enzyme activity cUSP47CD+FT671 relative to cUSP47CD without FT671 (=100) (cUSP47CD; FT671 5 μM, Ub-AMC 35 μM, mean and three replicates, 5 µM): 108.41 and 98.6437 and 106.057
remaining activity at 5 µM (cUSP47CD; FT671 5 μM, Ub-AMC 35 μM, mean and three replicates, read-out: Enzyme activity cUSP47CD+FT671 relative to cUSP47CD without FT671 (=100)): 104%
inhibition of cUSP47CD wild type by FT671 (cUSP47CD; FT671 5 μM, Ub-AMC, Fig. 5d): no inhibition
reduction in the activity of hUSP7CD^N460AH461A in the presence of FT671 (hUSP7CD^N460AH461A): ~ 80%
change in activity of cUSP47CD^R309N with FT671 (cUSP47CD^R309N): no change in the activity

B1: hUSP47CD-UBL12: human USP47 catalytic domain with the first two UBL domains, residues 1-794 (protein, UniProt Q96K76 1-794, looked up, fragment)
chain: MVPGEENQLVPKEDVFWRCRQNIFDEMKKKFLQIENAAEEPRVLCIIQDTTNSKTVNERITLNLPASTPVRKLFEDVANKVGYINGTFDLVWGNGINTADMAPLDHTSDKSLLDANFEPGKKNFLHLTDKDGEQPQILLEDSSAGEDSVHDRFIGPLPREGSGGSTSDYVSQSYSYSSILNKSETGYVGLVNQAMTCYLNSLLQTLFMTPEFRNALYKWEFEESEEDPVTSIPYQLQRLFVLLQTSKKRAIETTDVTRSFGWDSSEAWQQHDVQELCRVMFDALEQKWKQTEQADLINELYQGKLKDYVRCLECGYEGWRIDTYLDIPLVIRPYGSSQAFASVEEALHAFIQPEILDGPNQYFCERCKKKCDARKGLRFLHFPYLLTLQLKRFDFDYTTMHRIKLNDRMTFPEELDMSTFIDVEDEKSPQTESCTDSGAENEGSCHSDQMSNDFSNDDGVDEGICLETNSGTEKISKSGLEKNSLIYELFSVMVHSGSAAGGHYYACIKSFSDEQWYSFNDQHVSRITQEDIKKTHGGSSGSRGYYSSAFASSTNAYMLIYRLKDPARNAKFLEVDEYPEHIKNLVQKERELEEQEKRQREIERNTCKIKLFCLHPTKQVMMENKLEVHKDKTLKEAVEMAYKMMDLEEVIPLDCCRLVKYDEFHDYLERSYEGEEDTPMGLLLGGVKSTYMFDLLLETRKPDQVFQSYKPGEVMVKVHVVDLKAESVAAPITVRAYLNQTVTEFKQLISKAIHLPAETMRIVLERCYNDLRLLSVSSKTLKAEGFFRSNKVFV
modifications: catalytic domain with UBL1-2
Km (Ub-AMC): 3 ± 0.6 µM
kcat (Ub-AMC): 0.03 ± 0.002 s⁻¹
